System: HCV 1b-377-neo replicon cells
Assay: HCV replicon assay, HCV 1b-377-neo replicon cells (1b FRET)
Format: cell-based, Hepatitis C virus genotype 1b
Details: Hepatitis C virus, HCV 1b-377-neo replicon cells; HCV 1b genotype; read-out: EC50 range against HCV 1b (Table 2, Range)
Procedure, shortened: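 Compounds tested in HCV genotype 1b-377-neo replicon cells with a FRET read-out. Cells resistant to a reference NS5A inhibitor through a Y2065H NS5A mutation were run alongside wild-type cells.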

SMILES | EC50 [nM]
CCN(CC)[C@@H](C(=O)N1CCC[C@H]1c1ncc(-c2ccc(-c3ccc(-c4cnc([C@@H]5CCCN5C(=O)[C@@H](NC(=O)OC)C(C)C)[nH]4)cc3)cc2F)[nH]1)c1ccccc1 [Example D44, methyl ((1S)-1-(((2S)-2-(5-(4′-(2-((2S)-1-((2R)-2-(diethylamino)-2-phenylacetyl)-2-pyrrolidinyl)-1H-imidazol-5-yl)-3′-fluoro-4-biphenylyl)-1H-imidazol-2-yl)-1-pyrrolidinyl)carbonyl)-2-methylpropyl) carbamate] | 0.001 to 0.999
COC(=O)N[C@@H](C)C(=O)N1CCC[C@H]1c1ncc(-c2ccc(-c3ccc(-c4cnc([C@@H]5CCCN5C(=O)[C@H](C)NC(=O)OC)[nH]4)c(F)c3)cc2)[nH]1 [Example D45, methyl ((1S)-2-((2S)-2-(5-(3′-fluoro-4′-(2-((2S)-1-(N-(methoxycarbonyl)-L-alanyl)-2-pyrrolidinyl)-1H-imidazol-5-yl)-4-biphenylyl)-1H-imidazol-2-yl)-1-pyrrolidinyl)-1-methyl-2-oxoethyl)carbamate] | 0.001 to 0.999
COC(=O)N[C@@H](C(=O)N1CCC[C@H]1c1ncc(-c2ccc(-c3ccc(-c4cnc([C@@H]5CCCN5C(=O)[C@H](NC(=O)OC)c5ccccc5)[nH]4)c(F)c3)cc2)[nH]1)c1ccccc1 [Example D46, dimethyl ((3-fluoro-4,4′-biphenyldiyl)bis(1H-imidazole-5,2-diyl(2S)-2,1-pyrrolidinediyl((1R)-2-oxo-1-phenyl-2,1-ethanediyl))) biscarbamate] | 0.001 to 0.999
CCN(CC)[C@@H](C(=O)N1CCC[C@H]1c1ncc(-c2ccc(-c3ccc(-c4cnc([C@@H]5CCCN5C(=O)[C@@H](c5ccccc5)N(CC)CC)[nH]4)c(F)c3)cc2)[nH]1)c1ccccc1 [Example D47, (1R,1′R)-2,2′-((3-fluoro-4,4′-biphenyldiyl)bis(1H-imidazole-5,2-diyl(2S)-2,1-pyrrolidinediyl))bis (N,N-diethyl-2-oxo-1-phenylethanamine)] | 0.001 to 0.999
CCN(CC)[C@H](C)C(=O)N1CCC[C@H]1c1ncc(-c2ccc(-c3ccc(-c4cnc([C@@H]5CCCN5C(=O)[C@H](NC(=O)OC)c5ccccc5)[nH]4)cc3)cc2F)[nH]1 [Example D48, methyl ((1R)-2-((2S)-2-(5-(4′-(2-((2S)-1-(N,N-diethyl-D-alanyl)-2-pyrrolidinyl)-1H-imidazol-5-yl)-3′-fluoro-4-biphenylyl)-1H-imidazol-2-yl)-1-pyrrolidinyl)-2-oxo-1-phenylethyl)carbamate] | 0.001 to 0.999
CCN(CC)[C@@H](C(=O)N1CCC[C@H]1c1ncc(-c2ccc(-c3ccc(-c4cnc([C@@H]5CCCN5C(=O)[C@@H](NC(=O)OC)C5CC5)[nH]4)c(F)c3)cc2)[nH]1)c1ccccc1 [Example D49, methyl ((1S)-1-cyclopropyl-2-((2S)-2-(5-(4′-(2-((2S)-1-((2R)-2-(diethylamino)-2-phenylacetyl)-2-pyrrolidinyl)-1H-imidazol-5-yl)-3-fluoro-4-biphenylyl)-1H-imidazol-2-yl)-1-pyrrolidinyl)-2-oxoethyl)carbamate] | 0.001 to 0.999
COC(=O)N[C@H](C(=O)N1CCC[C@H]1c1ncc(-c2ccc(-c3ccc(-c4cnc([C@@H]5CCCN5C(=O)[C@@H](NC(=O)OC)C5CC5)[nH]4)c(F)c3)cc2)[nH]1)C(C)C [Example D50, methyl ((1S)-1-cyclopropyl-2-((2S)-2-(5-(3-fluoro-4′-(2-((2S)-1-(N-(methoxycarbonyl)-L-valyl)-2-pyrrolidinyl)-1H-imidazol-5-yl)-4-biphenylyl)-1H-imidazol-2-yl)-1-pyrrolidinyl)-2-oxoethyl)carbamate] | 0.001 to 0.999
COC(=O)N[C@@H](C)C(=O)N1CCC[C@H]1c1ncc(-c2ccc(-c3cc(F)c(-c4cnc([C@@H]5CCCN5C(=O)[C@H](C)NC(=O)OC)[nH]4)cc3F)cc2)[nH]1 [Example D52, methyl ((1S)-2-((2S)-2-(5-(2′5′-difluoro-4′-(2-((2S)-1-(N-(methoxycarbonyl)-L-alanyl)-2-pyrrolidinyl)-1H-imidazol-5-yl)-4-biphenylyl)-1H-imidazol-2-yl)-1-pyrrolidinyl)-1-methyl-2-oxoethyl)carbamate] | 0.001 to 0.999
COC(=O)N[C@@H](C(=O)N1CCC[C@H]1c1ncc(-c2ccc(-c3cc(F)c(-c4cnc([C@@H]5CCCN5C(=O)[C@H](NC(=O)OC)c5ccccc5)[nH]4)cc3F)cc2)[nH]1)c1ccccc1 [Example D53, dimethyl ((2,5-difluoro-4,4′-biphenyldiyl)bis(1H-imidazole-5,2-diyl(2S)-2,1-pyrrolidinediyl((1R)-2-oxo-1-phenyl-2,1-ethanediyl))) biscarbamate] | 0.001 to 0.999
CCN(CC)[C@@H](C(=O)N1CCC[C@H]1c1ncc(-c2ccc(-c3cc(F)c(-c4cnc([C@@H]5CCCN5C(=O)[C@@H](c5ccccc5)N(CC)CC)[nH]4)cc3F)cc2)[nH]1)c1ccccc1 [Example D54, (1R1′R)-2,2′-((2,5-difluoro-4,4′-biphenyldiyl)bis(1H-imidazole-5,2-diyl(2S)-2,1-pyrrolidinediyl))bis (N,N-diethyl-2-oxo-1-phenylethanamine)] | 0.001 to 0.999
COC(=O)N[C@H](C(=O)N1CCC[C@H]1c1ncc(-c2ccc(-c3ccc(-c4c[nH]c([C@@H]5CCCN5C(=O)[C@@H](NC(=O)OC)C5CC5)n4)c(F)c3)cc2F)[nH]1)C(C)C [Example D55, methyl ((1S)-1-cyclopropyl-2-((2S)-2-(5-(3,3,-difluoro-4′-(2-((2S)-1-(N-(methoxycarbonyl)-L-valyl)-2-pyrrolidinyl)-1H-imidazol-5-yl)-4-biphenylyl)-1H-imidazol-2-yl)-1-pyrrolidinyl)-2-oxoethyl)carbamate] | 0.001 to 0.999
COC(=O)N[C@@H](C)C(=O)N1CCC[C@H]1c1ncc(-c2ccc(-c3ccc(-c4cnc([C@@H]5CCCN5C(=O)[C@@H](NC(=O)OC)C(C)C)[nH]4)c(F)c3)cc2F)[nH]1 [Example D57, methyl ((1S)-1-(((2S)-2-(5-(3,3′-difluoro-4′-(2-((2S)-1-(N-(methoxycarbonyl)-L-alanyl)-2-pyrrolidinyl)-1H-imidazol-5-yl)-4-biphenylyl)-1H-imidazol-2-yl)-1-pyrrolidinyl)carbonyl)-2-methylpropyl) carbamate] | 0.001 to 0.999
COC(=O)N[C@H](C(=O)N1CCC[C@H]1c1ncc(-c2ccc(-c3ccc(-c4cnc([C@@H]5CCCN5C(=O)[C@@H](NC(=O)OC)C(C)C)[nH]4)c(F)c3)cc2F)[nH]1)C(C)C [Example D58, methyl ((1S)-1-(((2S)-2-(5-(3,3′-difluoro-4′-(2-((2S)-1-((2S)-2-((methoxycarbonyl)amino)-3-methylbutanoyl)-2-pyrrolidinyl)-1H-imidazol-5-yl)-4-biphenylyl)-1H-imidazol-2-yl)-1-pyrrolidinyl)carbonyl)-2-methylpropyl) carbamate] | 0.001 to 0.999
CCN(CC)[C@H](C)C(=O)N1CCC[C@H]1c1ncc(-c2ccc(-c3ccc(-c4cnc([C@@H]5CCCN5C(=O)[C@@H](NC(=O)OC)C(C)C)[nH]4)c(F)c3)cc2F)[nH]1 [Example D59, methyl ((1S)-1-(((2S)-2-(5-(4′-(2-((2S)-1-(N,N-diethyl-D-alanyl)-2-pyrrolidinyl)-1H-imidazol-5-yl)-3,3′-difluoro-4-biphenylyl)-1H-imidazol-2-yl)-1-pyrrolidinyl)carbonyl)-2-methylpropyl) carbamate] | 0.001 to 0.999
COC(=O)N[C@H](C(=O)N1CCC[C@H]1c1ncc(-c2ccc(-c3ccc(-c4cnc([C@@H]5CCCN5C(=O)[C@H](NC(=O)OC)c5ccccc5)[nH]4)c(F)c3)cc2F)[nH]1)C(C)C [Example D60, methyl ((1S)-1-(((2S)-2-(5-(3,3′-difluoro-4′-(2-((2S)-1-((2R)-2-((methoxycarbonyl)amino)-2-phenylacetyl)-2-pyrrolidinyl)-1H-imidazol-5-yl)-4-biphenylyl)-1H-imidazol-2-yl)-1-pyrrolidinyl)carbonyl)-2-methylpropyl) carbamate] | 0.001 to 0.999
COC(=O)N[C@@H](C)C(=O)N1CCC[C@H]1c1ncc(-c2ccc(-c3ccc(-c4cnc([C@@H]5CCCN5C(=O)[C@H](C)NC(=O)OC)[nH]4)c(F)c3)cc2F)[nH]1 [Example D61, methyl ((1S)-2-((2S)-2-(5-(3,3,-difluoro-4′-(2-((2S)-1-(N-(methoxycarbonyl)-L-alanyl)-2-pyrrolidinyl)-1H-imidazol-5-yl)-4-biphenylyl)-1H-imidazol-2-yl)-1-pyrrolidinyl)-1-methyl-2-oxoethyl)carbamate] | 0.001 to 0.999
COC(=O)N[C@@H](C)C(=O)N1CCC[C@H]1c1ncc(-c2ccc(-c3ccc(-c4cnc([C@@H]5CCCN5C(=O)[C@H](NC(=O)OC)c5ccccc5)[nH]4)c(F)c3)cc2F)[nH]1 [Example D62, methyl ((1R)-2-((2S)-2-(5-(3,3′-difluoro-4′-(2-((2S)-1-(N-(methoxycarbonyl)-L-alanyl)-2-pyrrolidinyl)-1H-imidazol-5-yl)-4-biphenylyl)-1H-imidazol-2-yl)-1-pyrrolidinyl)-2-oxo-1-phenylethyl)carbamate] | 0.001 to 0.999
CCN(CC)[C@H](C)C(=O)N1CCC[C@H]1c1ncc(-c2ccc(-c3ccc(-c4cnc([C@@H]5CCCN5C(=O)[C@H](NC(=O)OC)c5ccccc5)[nH]4)c(F)c3)cc2F)[nH]1 [Example D63, methyl ((1R)-2-((2S)-2-(5-(4′-(2-((2S)-1-(N,N-diethyl-D-alanyl)-2-pyrrolidinyl)-1H-imidazol-5-yl)-3,3′-difluoro-4-biphenylyl)-1H-imidazol-2-yl)-1-pyrrolidinyl)-2-oxo-1-phenylethyl)carbamate] | 0.001 to 0.999
CCN(CC)[C@@H](C(=O)N1CCC[C@H]1c1ncc(-c2ccc(-c3ccc(-c4cnc([C@@H]5CCCN5C(=O)[C@H](NC(=O)OC)c5ccccc5)[nH]4)c(F)c3)cc2F)[nH]1)c1ccccc1 [Example D64, methyl ((1R)-2-((2S)-2-(5-(4′-(2-((2S)-1-((2R)-2-(diethylamino)-2-phenylacetyl)-2-pyrrolidinyl)-1H-imidazol-5-yl)-3,3′-difluoro-4-biphenylyl)-1H-imidazol-2-yl)-1-pyrrolidinyl)-2-oxo-1-phenylethyl)carbamate] | 0.001 to 0.999
